From patent US8129398B2 (priority 2008, dated 2012) come the findings set out here.

The structures appear in SMILES notation.

The experiment concerns the target T1, HIV-integrase (Human immunodeficiency virus type 1 group M subtype B, UniProt P12497).
T1 construct: Recombinant integrase (0.26 ng) was incubated with the beads
Description: HIV-Integrase Inhibition Activity (SPA bead integration assay with P33 labeled target DNA). The format is biochemical. The note with it: recombinant integrase, class symbols; read-out: in vitro activity. In short, it runs like this: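 Biotinylated substrate DNA on streptavidin SPA beads loaded with recombinant integrase (90 min, 37° C), washed, then inhibitor plus 0.1 fmol P33-labeled target DNA added. Reaction stopped with 10 mM EDTA; integration measured as CPM by scintillation, giving IC50 ranks.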
`CN(C)C(=O)C(=O)NC12CCC(CC1)Cn1c2nc(C(=O)NCc2ccc(F)cc2C(F)(F)F)c(O)c1=O` [Example 121, N′-(2-((4-Fluoro-2-(trifluoromethyl)benzyl)carbamoyl)-3-hydroxy-4-oxo-6,7,8,9-tetrahydro-7,10-ethanopyrimido[1,2-a]azepin-10(4H)-yl)-N,N-dimethylethanediamide]: the IC50 was less than 10 nM.

As for `Cc1cc(CNC(=O)c2nc3n(c(=O)c2O)CC2CCC3(NC(=O)c3cc(-c4cnn(C)c4)on3)CC2)ccc1F` [Example 292, 7,10-Ethanopyrimido[1,2-a]azepine-2-carboxamide, N-[(4-fluoro-3-methylphenyl)methyl]-4,6,7,8,9,10-hexahydro-3-hydroxy-10-[[[5-(1-methyl-1H-pyrazol-4-yl)-3-isoxazolyl]carbonyl]amino]-4-oxo-], the IC50 is less than 10 nM.

Turning to `O=C(NC12CCC(CC1)Cn1c2nc(C(=O)NCc2ccc(F)cc2)c(O)c1=O)C(=O)N1CCC1` [Example 67, 10-((1-Azetidinyl(oxo)acetyl)amino)-N-(4-fluorobenzyl)-3-hydroxy-4-oxo-4,6,7,8,9,10-hexahydro-7,10-ethanopyrimido[1,2-a]azepine-2-carboxamide], the IC50 is less than 10 nM.

Turning to `O=C(NC12CCC(CC1)Cn1c2nc(C(=O)NCc2ccc(F)cc2)c(O)c1=O)C(=O)N1CCCCC1` [Example 59, N-(4-Fluorobenzyl)-3-hydroxy-4-oxo-10-((oxo(1-piperidinyl)acetyl)amino)-4,6,7,8,9,10-hexahydro-7,10-ethanopyrimido[1,2-a]azepine-2-carboxamide], the IC50 is less than 10 nM.

In the case of `NC12CCC(Cn3c1nc(C(=O)NCc1ccc(F)cc1)c(O)c3=O)C2` (stereo not drawn) [Example 190, 7,10-Methanopyrimido[1,2-a]azepine-2-carboxamide, 10-amino-N-[(4-fluorophenyl)methyl]-4,6,7,8,9,10-hexahydro-3-hydroxy-4-oxo-], the IC50 was in the range of 10 to 100 nM.

In the case of `O=C(NC12CCC(CC1)Cn1c2nc(C(=O)NCc2ccc(F)cc2)c(O)c1=O)C(=O)N1CCC[C@@H]1CO` [Example 87, N-(4-Fluorobenzyl)-3-hydroxy-10-((((2R)-2-(hydroxymethyl)-1-pyrrolidinyl)(oxo)acetyl)amino)-4-oxo-4,6,7,8,9,10-hexahydro-7,10-ethanopyrimido[1,2-a]azepine-2-carboxamide], the IC50 is less than 10 nM.

Take `Cc1cc(CNC(=O)c2nc3n(c(=O)c2O)CC2CCC3(NC(=O)C(C)n3cncn3)CC2)ccc1F` (stereo not drawn) [Example 291, 7,10-Ethanopyrimido[1,2-a]azepine-2-carboxamide, N-[(4-fluoro-3-methylphenyl)methyl]-4,6,7,8,9,10-hexahydro-3-hydroxy-4-oxo-10-[[1-oxo-2-(1H-1,2,4-triazol-1-yl)propyl]amino]-]: the IC50 was less than 10 nM.

On to `CC1(C)[C@@H]2CC[C@@]1(C)[C@@H](NC(=O)OCc1ccccc1)c1nc(C(=O)NCc3ccc(F)cc3)c(O)c(=O)n1C2` [Example 181, Benzyl((7S,10R,11R)-2-((4-fluorobenzyl)carbamoyl)-3-hydroxy-10,12,12-trimethyl-4-oxo-6,7,8,9,10,11-hexahydro-4H-7,10-methanopyrimido[1,2-a]azocin-11-yl)carbamate], for which the IC50 was in the range of 10 to 100 nM.

Regarding `CNC(=O)N1CCCC1C(=O)NC12CCC(CC1)Cn1c2nc(C(=O)NCc2ccc(F)cc2)c(O)c1=O` (stereo not drawn) [Example 401], the IC50 was less than 10 nM.

As to `O=C(NC12CCC(CC1)Cn1c2nc(C(=O)NCc2ccc(F)cc2)c(O)c1=O)C(=O)N1CCC(O)CC1` [Example 63, N-(4-Fluorobenzyl)-3-hydroxy-10-(((4-hydroxy-1-piperidinyl)(oxo)acetyl)amino)-4-oxo-4,6,7,8,9,10-hexahydro-7,10-ethanopyrimido[1,2-a]azepine-2-carboxamide], the IC50 was less than 10 nM.

With `CO[C@H]1C[C@@H](C(=O)NC23CCC(CC2)Cn2c3nc(C(=O)NCc3ccc(F)cc3)c(O)c2=O)N(S(C)(=O)=O)C1` [Example 272, 7,10-Ethanopyrimido[1,2-a]azepine-2-carboxamide, N-[(4-fluorophenyl)methyl]-4,6,7,8,9,10-hexahydro-3-hydroxy-10-[[[(2S,4S)-4-methoxy-1-(methylsulfonyl)-2-pyrrolidinyl]carbonyl]amino]-4-oxo-], the IC50 was less than 10 nM.

For the compound `CS(=O)(=O)NC12CCC(CC1)Cn1c2nc(C(=O)NCc2ccc(F)cc2)c(O)c1=O` [Example 21, N-(4-Fluorobenzyl)-3-hydroxy-10-((methylsulfonyl)amino)-4-oxo-4,6,7,8,9,10-hexahydro-7,10-ethanopyrimido[1,2-a]azepine-2-carboxamide], the IC50 was less than 10 nM.

`Cc1cc(CNC(=O)c2nc3n(c(=O)c2O)CC2CCC3(NC(=O)[C@@H]3CC(F)(F)CN3S(C)(=O)=O)CC2)ccc1F` [Example 290, 7,10-Ethanopyrimido[1,2-a]azepine-2-carboxamide, 10-[[[(2S)-4,4-difluoro-1-(methylsulfonyl)-2-pyrrolidinyl]carbonyl]amino]-N-[(4-fluoro-3-methylphenyl)methyl]-4,6,7,8,9,10-hexahydro-3-hydroxy-4-oxo-]: the IC50 was less than 10 nM.

As for `CN/C(=N\C#N)NC12CCC(CC1)Cn1c2nc(C(=O)NCc2ccc(F)c(C)c2)c(O)c1=O` [Example 335, 7,10-Ethanopyrimido[1,2-a]azepine-2-carboxamide, 10-[[(1Z)-(cyanoamino)(methylamino)methylene]amino]-N-[(4-fluoro-3-methylphenyl)methyl]-4,6,7,8,9,10-hexahydro-3-hydroxy-4-oxo-], the IC50 is less than 10 nM.

On to `O=C(NC12CCC(CC1)Cn1c2nc(C(=O)NCc2ccc(F)cc2)c(O)c1=O)C(=O)N1CC(F)(F)C1` [Example 98, 10-(((3,3-Difluoro-1-azetidinyl) (oxo)acetyl)amino)-N-(4-fluorobenzyl)-3-hydroxy-4-oxo-4,6,7,8,9,10-hexahydro-7,10-ethanopyrimido[1,2-a]azepine-2-carboxamide], for which the IC50 was less than 10 nM.

`COc1cc(CNC(=O)c2nc3n(c(=O)c2O)CC2CCC3(N(C)C(=O)C(=O)N(C)C)CC2)ccc1F` [Example 160, N-(2-((4-Fluoro-3-methoxybenzyl)carbamoyl)-3-hydroxy-4-oxo-6,7,8,9-tetrahydro-7,10-ethanopyrimido[1,2-a]azepin-10(4H)-yl)-N,N′,N′-trimethylethanediamide]: the IC50 was less than 10 nM.

For the compound `COC(=O)c1sccc1S(=O)(=O)N1CCN(C(=O)C(=O)NC23CCC(CC2)Cn2c3nc(C(=O)NCc3ccc(F)cc3)c(O)c2=O)CC1` [Example 147, Methyl 3-((4-(((2-((4-fluorobenzyl)carbamoyl)-3-hydroxy-4-oxo-6,7,8,9-tetrahydro-7,10-ethanopyrimido[1,2-a]azepin-10(4H)-yl)amino) (oxo)acetyl)-1-piperazinyl)sulfonyl)-2-thiophenecarboxylate], the IC50 was less than 10 nM.

On to `O=C(NC12CCC(CC1)Cn1c2nc(C(=O)NCc2ccc(F)cc2)c(O)c1=O)C(=O)N1CCC(F)(F)CC1` [Example 85, 10-(((4,4-Difluoro-1-piperidinyl) (oxo)acetyl)amino)-N-(4-fluorobenzyl)-3-hydroxy-4-oxo-4,6,7,8,9,10-hexahydro-7,10-ethanopyrimido[1,2-a]azepine-2-carboxamide], for which the IC50 is less than 10 nM.

For the compound `O=C(NC12CCC(CCn3c1nc(C(=O)NCc1ccc(F)cc1)c(O)c3=O)C2)C(=O)N1CC(F)(F)C1` (stereo not drawn) [Example 202, 8,1,1-Methano-4H-pyrimido[1,2-a]azocine-2-carboxamide, 1′-[[2-(3,3-difluoro-1-azetidinyl)-1,2-dioxoethyl]amino]-N-[(4-fluorophenyl)methyl]-6,7,8,9,10,11-hexahydro-3-hydroxy-4-oxo-], the IC50 was less than 10 nM.

On to `CN(C(=O)C(=O)N1CC[C@@H](F)C1)C12CCC(CC1)Cn1c2nc(C(=O)NCc2ccc(F)cc2)c(O)c1=O` [Example 163, N-(4-Fluorobenzyl)-10-((((3R)-3-fluoro-1-pyrrolidinyl)(oxo)acetyl)(methyl)amino)-3-hydroxy-4-oxo-4,6,7,8,9,10-hexahydro-7,10-ethanopyrimido[1,2-a]azepine-2-carboxamide], for which the IC50 is less than 10 nM.

Consider `CN(C)C(=O)C(=O)NC12CCC(CC1)Cn1c2nc(C(=O)NCc2ccc(F)cc2-c2ncnn2C)c(O)c1=O` [Example 107, N′-(2-((4-Fluoro-2-(1-methyl-1H-1,2,4-triazol-5-yl)benzyl)carbamoyl)-3-hydroxy-4-oxo-6,7,8,9-tetrahydro-7,10-ethanopyrimido[1,2-a]azepin-10(4H)-yl)-N,N-dimethylethanediamide], for which the IC50 is 10 to 100 nM.

As for `COc1cc(F)ccc1CNC(=O)c1nc2n(c(=O)c1O)CC1CCC2(NC(=O)C(=O)N(C)C)CC1` [Example 116, N′-(2-((4-Fluoro-2-methoxybenzyl)carbamoyl)-3-hydroxy-4-oxo-6,7,8,9-tetrahydro-7,10-ethanopyrimido[1,2-a]azepin-10(4H)-yl)-N,N-dimethylethanediamide], the IC50 was less than 10 nM.

On to `CCN(CC)C(=O)C(=O)NC12CCC(CC1)Cn1c2nc(C(=O)NCc2ccc(F)cc2)c(O)c1=O` [Example 97, N,N-Diethyl-N′-(2-((4-fluorobenzyl)carbamoyl)-3-hydroxy-4-oxo-6,7,8,9-tetrahydro-7,10-ethanopyrimido[1,2-a]azepin-10(4H)-yl)ethanediamide], for which the IC50 is less than 10 nM.

As for `O=C(NC12CCC(CC1)Cn1c2nc(C(=O)NCc2ccc(F)cc2)c(O)c1=O)C(=O)N1CCC(F)CC1` [Example 102, N-(4-Fluorobenzyl)-10-(((4-fluoro-1-piperidinyl)(oxo)acetyl)amino)-3-hydroxy-4-oxo-4,6,7,8,9,10-hexahydro-7,10-ethanopyrimido[1,2-a]azepine-2-carboxamide], the IC50 is less than 10 nM.
